Source: patent US11371994B2, “Phosphorylated Akt-specific capture agents, compositions, and methods of using and making” (California Institute of Technology, priority 2013, dated 2022)
“And” between values parts separate entries of the source, which are not always exact repeats. Equal values may be shown once. “Also recorded” adds a separate entry of the source.

Columns and labels:
[1] = test system: Akt; conditions: cited from earlier work
[2] = target: T1, Akt (Homo sapiens, UniProt P31751); assay: OVCAR3 lysate pull-down (immunoprecipitation) assay; type: binding; conditions: eluents stained with pan-Akt antibody
T1 construct: endogenous in cells; host or cells: OVCAR3
T1 sequence (P31751 whole entry): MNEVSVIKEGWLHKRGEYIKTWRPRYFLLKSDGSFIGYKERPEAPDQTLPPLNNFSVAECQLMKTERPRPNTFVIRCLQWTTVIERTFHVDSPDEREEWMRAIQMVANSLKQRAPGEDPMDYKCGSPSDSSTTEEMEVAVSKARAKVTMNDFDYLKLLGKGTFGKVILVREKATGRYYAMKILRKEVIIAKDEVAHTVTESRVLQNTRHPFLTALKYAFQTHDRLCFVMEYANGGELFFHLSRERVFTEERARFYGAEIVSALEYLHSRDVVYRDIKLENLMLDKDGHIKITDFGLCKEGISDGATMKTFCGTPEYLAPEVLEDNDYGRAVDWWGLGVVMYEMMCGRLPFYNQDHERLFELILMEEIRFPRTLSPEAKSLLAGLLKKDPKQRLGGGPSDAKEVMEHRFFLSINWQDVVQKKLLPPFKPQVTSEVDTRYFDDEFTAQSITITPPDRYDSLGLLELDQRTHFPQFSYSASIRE
Protocol: OVCAR3 cells (ATCC) were grown in RPMI-1640 media containing 20% fetal bovine serum. Passage three cells were grown to ˜80% confluence. Cells were lysed with lysis buffer (10 mM Tris-Cl (pH=7.5), 100 mM NaCl, 1% (v/v) Triton X-100, 0.1% SDS (w/v), 0.5% deoxycholate, 1 mM DTT, 1 mM EDTA, 1× PhosStop phosphatase inhibitors (Roche), 1× Complete protease inhibitors (Roche)) and the amount of protein measured using BCA Protein Assay Kit (Pierce Biotechnologies, Inc). Streptavidin-agarose resin solution (EMD) was swelled in TBST (25 mM tris chloride, pH=7.5, 150 mM NaCl, 0.05% Tween-20). Each of the biotinylated ligands was immobilized on the Streptavidin-agarose resin by adding 7.2 μL of 1 mM ligand stock (DMSO) to 10 μL of the swelled streptavidin-agarose resin. For the blank control, the resin was treated with 7.2 μL of 1 mM biotinylated acyl glycine. […] After shaking overnight at 4° C., 50 μM D-biotin was added to the resin to block any remaining sites. The resin was washed with TBST five times, for fifteen minutes each. The resin was then swelled in binding buffer for two hours. To each of the immobilized ligands, 200 μL OVCAR3 cell lysate (1.9 mg/ml) was added. The tubes were shaken at 4° C. for 18 hours. The beads were extensively washed, three times for fifteen minutes in binding buffer, three times (fifteen minutes) in TBST, and three times (fifteen minutes) in TBS to remove unbound proteins. The resin bound proteins were eluted by adding 40 μL of 2×SDS-PAGE sample loading buffer (BioRad) and heating at 95° C. for five minutes. A 1:10 diluted sample of lysate in sample loading buffer was prepared by mixing 1 μL of the sample with 9 μL sample loading buffer and denaturing the sample by heating at 95° C. for five minutes. 10 μL of each sample was loaded on a 12% SDS-PAGE gels (BioRad) and run for 80 minutes at 110 volts. Three identical gels were loaded and run at the same time. One gel was used for Coomassie staining with Coomassie Fluor Orange Protein Gel Stain (Molecular Probes) following the manufacturer's protocol. The two other gels were transferred to nitrocellulose membranes by the semidry transfer method, blocked for two hours at 4° C. with 5% non-fat milk, and treated overnight at 4° C. with a 1:1000 dilution of pan-Akt rabbit monoclonal antibody (Cell Signaling Technology) and a 1:1000 dilution of pS473 Akt rabbit monoclonal antibody (Cell Signaling Technology), respectively, in 0.5% non-fat milk. The membranes were washed and treated for an hour with a 1:10,000 dilution of monoclonal mouse anti-rabbit-HRP secondary antibody (Cell Signaling Technology) in 0.5% milk. After five washes of five minutes each with TBST and one wash of five minutes with TBS, the blots were developed with West Dura ECL substrate (Thermo Scientific) and imaged on film.

[3] = target: T2, Akt2 (Homo sapiens, UniProt P31751); assay: Non-radioactive kinase assay, phosphorylation of GSK-3α/β fusion protein; type: biochemical; design: purchased Abcam
T2 sequence (P31751 whole entry, the tested form may be a part): as the sequence (P31751 whole entry) above
Protocol: The non-radioactive kinase assay kit for Akt2 was purchased from Cell Signaling. Ligand solutions were made in DMSO. Kinase reactions were set up in 1× kinase buffer (25 mM trisHCl (pH 7.5), 10 mM MgCl2, 0.01% Triton-X, 1× Complete protease inhibitor (Roche), 1× Phosstop phosphatase inhibitor (Roche)), each 25 μL reaction mixture containing 400 ng Akt2, 400 ng GST-GSK-3α/β fusion protein, […] and 0.5 μL of peptide solutions in DMSO or DMSO only. Reactions were allowed to proceed for 30 minutes at 30° C. A reaction mixture was also prepared using a 1:2.5 dilution of anti pS473 antibody (Cell Signaling) in the kinase buffer instead of the peptide ligand or DMSO. The reactions were quenched by adding 12.5 μL of 2×SDS sample loading buffer and heating at 95° C. for five minutes. 10 μL from each sample was loaded on an any kD SDS gel (BioRad) and run for an hour at 110 volts. Following semidry transfer of the gel to a nitrocellulose membrane, the membrane was blocked in 5% nonfat milk/TBST for an hour at 4° C., and treated overnight at 4° C. with a 1:200 dilution of Phospho GSK-3α/β Ser (21/9) rabbit antibody (Cell Signaling) in 0.5% milk/TBST. Following washes, the membrane was treated with a 1:2000 dilution of mouse anti-rabbit-HRP antibody for an hour at 4° C. After four five minute washes with TBST, and one five minute wash with TBS, the membrane was treated with West Dura ECL substrate (Thermo Scientific) and imaged on film.

[4] = target: T3, Akt2 epitope (450-481) (Homo sapiens, UniProt P31751); assay: Epitope selectivity ELISA with His6 tagged C-terminal 32-mer fragments; type: binding; conditions: peptide fragments; set also full protein level
T3 construct: made in house; host or cells: chemical solid-phase peptide synthesis (Rink Amide MBHA resin)
T3 sequence (P31751 450-481 limits assumed): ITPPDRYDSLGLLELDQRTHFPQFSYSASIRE
Protocol: (§1) 1.25 μM biotinylated ligand was prepared by diluting the 1 mM stock in binding buffer (25 mM tris chloride, pH=7.4, 150 mM NaCl, 0.1% BSA, 0.05% Tween 20). The prepared ligand solution or 0.125% DMSO in buffer (buffer control) was immobilized on a High Capacity Streptavidin 96 well plate (Thermo Scientific). After washing away the excess ligand, the plate was blocked overnight with 1% BSA/25 mM tris chloride, pH=7.4/150 mM NaCl, 0.05% Tween 20. 2.5 μM solutions of the His6 (SEQ ID NO:28) tagged target phosphopeptide epitope Akt2 amino acids 450-481, His6 (SEQ ID NO:28) tagged Akt1 amino acids 449-480, His6 (SEQ ID NO:28) tagged Akt3 amino acids 448-479 were added to each of the wells. Following three washes with the binding buffer, the plate was treated for an hour with a 1:1000 dilution of anti His6 (SEQ ID NO:28) mouse monoclonal antibody. A 1:10,000 dilution of goat anti mouse antibody-Horse Radish Peroxide conjugate in binding buffer was added to the wells. The plates were washed four times, five minutes each, with 0.05% Tween 20/TBS (25 mM tris chloride, pH=7.5, 150 mM NaCl) and once with TBS (25 mM tris chloride, pH=7.5, 150 mM NaCl). […] The A450 measured on a 96-well plate reader. The Net A450 was obtained by subtracting the absorbance value for the blank control (no immobilized ligand) from each of the triplicate values obtained for the ligand-epitope interaction. […]

[5] = target: T4, target peptide epitope (Akt2 450-481, pS474) (Homo sapiens, UniProt P31751); assay: ELISA of C terminal triligand candidates binding to the target peptide epitope; conditions: listed as C-t1
T4 construct: made in house; host or cells: chemical solid-phase peptide synthesis (Rink Amide MBHA resin)
T4 sequence (P31751 450-481 limits assumed): T3 sequence (P31751 450-481 limits assumed)
Protocol: Selection of the final C terminal triligand C-tL: Four triligand candidates were synthesized with (L-Az4)-hdGGf (SEQ ID NO:25) […], (L-Az4)-hdGsf (SEQ ID NO:74) (C-t2), (L-Az4)-hdGww (SEQ ID NO:67) (C-t3), (L-Az4)-hdGkf (SEQ ID NO:77) (C-t4) as the 3° peptide arm. Binding of the candidates to the target peptide epitope was determined in an ELISA assay (FIG. 20C) and the ligand C-t1 emerged as the best binder. C-t1 was chosen as the C terminal triligand C-tL.
as §1, with “wells.” for “wells. Following three washes with the binding buffer, the plate was treated for an hour with a 1:1000 dilution of anti His6 (SEQ ID NO:28) mouse monoclonal antibody. A 1:10,000 dilution of goat anti mouse antibody-Horse Radish Peroxide conjugate in binding buffer was added to the wells. The plates were washed four times, five minutes each, with 0.05% Tween 20/TBS (25 mM tris chloride, pH=7.5, 150 mM NaCl) and once with TBS (25 mM tris chloride, pH=7.5, 150 mM NaCl).”

[6] = target: T2, Akt2; assay: Single component ELISA, PCC agent as capture or detection agent (relative affinity); type: binding; design: purchased Abcam; conditions: read-out: EC50 from single component ELISA
Source text: FIG. 23: A. ELISA assays in which the PCC Agents are utilized as either as surface-localized capture agents (for N-tL, C-tL) or as the detection agent (for mono-L, bi-L). Such assays provide relative affinity measurements, which are given as EC50 values in the key. […] C. C-tL distinguishes the full length Akt2 from isoform proteins Akt1 and Akt3. D. The 32 amino acid long C terminal fragment from Akt2, Akt1 and Akt3. The hydrophobic motif is highlighted in blue. pS refers to phospho-serine. […] F. Selectivity assays: Biotinylated ligands or biotinylated pS473 antibody is immobilized on streptavidin-agarose and treated with OVCAR3 cell lysate. The eluents are stained with a pan-Akt antibody or pS473 Akt antibody.
1.25 μM biotinylated ligand was prepared by diluting the 1 mM stock in binding buffer (25 mM tris chloride, pH=7.4, 150 mM NaCl, 0.1% BSA, 0.05% Tween 20). The prepared ligand solution or 0.125% DMSO in buffer (buffer control) was immobilized on a High Capacity Streptavidin 96 well plate (Thermo Scientific). After washing away the excess ligand, the plate was blocked overnight with 1% BSA/25 mM tris chloride, pH=7.4/150 mM NaCl, 0.05% Tween 20. 2.5 μM solutions of the His6 (SEQ ID NO:28) tagged target phosphopeptide epitope Akt2 amino acids 450-481, His6 (SEQ ID NO:28) tagged Akt1 amino acids 449-480, His6 (SEQ ID NO:28) tagged Akt3 amino acids 448-479 were added to each of the wells. Following three washes with the binding buffer, the plate was treated for an hour with a 1:1000 dilution of anti His6 (SEQ ID NO:28) mouse monoclonal antibody. A 1:10,000 dilution of goat anti mouse antibody-Horse Radish Peroxide conjugate in binding buffer was added to the wells. The plates were washed four times, five minutes each, with 0.05% Tween 20/TBS (25 mM tris chloride, pH=7.5, 150 mM NaCl) and once with TBS (25 mM tris chloride, pH=7.5, 150 mM NaCl). Color was developed by adding TMB substrate (KPL) to each well. The reaction was quenched with 0.5 M H2SO4. The A450 measured on a 96-well plate reader. The Net A450 was obtained by subtracting the absorbance value for the blank control (no immobilized ligand) from each of the triplicate values obtained for the ligand-epitope interaction. The selectivity assay with full length His6 (SEQ ID NO:28) tagged Akt1, Akt2 and Akt3 was performed following the same protocol, using 25 nM protein instead of 2.5 μM His6 tagged peptide epitope.

SMILES | effect on Akt phosphorylation [1] | immunoprecipitation of Akt from OVCAR3 cell lysate [2] | EC50 ([3]; densitometry of pGSK3α/β western blot, normalized to DMSO control, read-out: EC50 of inhibition of Akt2 kinase activity) | influence on Akt2 kinase activity (p-GSK-3α/β level) ([3]; relative to DMSO control) | selectivity for the Akt2 epitope compared to corresponding regions in Akt1 and Akt3 [4] | binding to the target peptide epitope [5] | EC50 [6]
Cc1n[nH]c2ccc(-c3cncc(OC[C@@H](N)Cc4c[nH]c5ccccc45)c3)cc12 [A-443654] | paradoxical hyper-phosphorylation of Akt at both Thr308 and Ser473 |  |  |  |  |  | 
CC(=O)NC(CCCCn1cc(C[C@@H](NC(=O)CCCCn2cc(C[C@@H](NC(=O)[C@@H](Cc3ccccc3)NC(=O)[C@@H](Cc3ccc(O)cc3)NC(=O)CNC(=O)[C@@H](CC(N)=O)NC(=O)[C@H](N)Cc3c[nH]cn3)C(=O)O)nn2)C(=O)N[C@H](Cc2c[nH]c3ccccc23)C(=O)N[C@H](CCCCN)C(=O)N[C@@H](C(=O)N[C@H](CCCCN)C(=O)N[C@H](CCCCNC(=O)CCc2cn(CCCC[C@H](NC(C)=O)C(=O)N[C@H](Cc3c[nH]cn3)C(=O)N[C@H](CC(=O)O)C(=O)NCC(=O)NCC(=O)N[C@H](Cc3ccccc3)C(N)=O)nn2)C(=O)N2CCCCC2)C(C)C)nn1)C(=O)NCCOCCOCCOCCC(=O)NCCNC(=O)CCCC[C@@H]1SC[C@@H]2NC(=O)N[C@@H]21 (stereo partly shown) [C-tL] |  | lower signal than N-tL | 4 µM and ~4 µM | inhibits Akt2 kinase activity | significant selectivity for the Akt2 epitope | best binder; also recorded: shows good binding | 0.125 µM
